Data: patent publication US20250381165A1, “Method of Use for Benzofuran Compounds” (Tampa Bay Research Institute, Inc., priority 2024, published 2025)

Experiments:
Type in all cases: cell-based, murine
[1] = system: DC2.4 cells (B3Z activation); assay: Pathway inhibitor studies in DC2.4/B3Z assay; conditions: DC2.4, 3 μg/mL BFA, 25 μg/mL BzFβ 6 h, 0.5 nM SIINFEKL
Procedure: […]. The cytotoxicity of all inhibitors was assessed using CellTiter96 Aqueous One (Promega (Madison WI, USA); cat. no. G3580).
. The cells were then washed 2× before addition of BzFβ. Cells exposed to the other inhibitors were incubated with an appropriate concentration of each inhibitor, seen in Table 1 in cDMEM at 37° C., 5% CO2. […]. Cells were then incubated for 6 h. Before B3Z addition the inhibitor and BzFβ were removed, and the cells washed with warm DPBS. If testing peptide presentation, the DC2.4 cells were pulsed with 0.5 nM […] for 1 h prior to being cocultured with B3Z.

[2] = system: E.G7-OVA cells (B3Z activation); assay: B3Z activation by E.G7-OVA cells
Procedure: Activation of B3Z T cell hybridoma cells was assessed following their exposure to various MHC class I H-2K^b positive cell lines presenting the SIINFEKL peptide. To stimulate β-gal production in the B3Z, the H-2Kb murine cell lines, DC2.4 and E.G7-OVA were plated at a density of 2.5 or 5×10^4 cells/well (100 μL/well in 96 well plates) and cultured overnight at 37° C. in an atmosphere containing 5% CO2 and 95% humidity. The cells were washed with DPBS and then treated for 1-24 h with the indicated concentrations of BzFβ suspended in complete media. Vehicle controls were always included. Cells being examined for the uptake and processing of soluble OVA were co-treated with BzFβ and 0.5 mg/mL grade V chicken ovalbumin for 6-24 h, and then washed and cocultured with B3Z as indicated.
Following the pretreatment with BzFβ, the media was removed from adherent cells (DC2.4 or B16F10) or was removed following pelleting of nonadherent cells in the plate. The cells were then pulsed with various concentrations of SIINFEKL peptide (typically 0.5 nM was used) for the indicated lengths of time (typically 1 h). The cells were washed and then 100 μL of complete DMEM containing 5×10^4 B3Z cells was added. […] The absorbance at 560 nm (700 nm for background) was intermittently monitored using a BioTek Synergy HTX multimode microplate reader (Winooski, VT) to detect β-gal activity. […]

[3] = target: T1, H-2Kb/SIINFEKL complex on DC2.4 (Mus musculus, UniProt P01901); assay: BFA decay experiment (SIINFEKL off-rate) on DC2.4; conditions: 24 h pre-treatment, 1 h 30 nM SIINFEKL
T1 construct: DC2.4 are a C57Bl/6 lineage murine cell line and as such they express MHC class I H-2Kb and H-2Db; endogenous in cells; host or cells: DC2.4 (murine dendritic cell line, from Dr. Kenneth Rock)
T1 sequence (P01901 22-369): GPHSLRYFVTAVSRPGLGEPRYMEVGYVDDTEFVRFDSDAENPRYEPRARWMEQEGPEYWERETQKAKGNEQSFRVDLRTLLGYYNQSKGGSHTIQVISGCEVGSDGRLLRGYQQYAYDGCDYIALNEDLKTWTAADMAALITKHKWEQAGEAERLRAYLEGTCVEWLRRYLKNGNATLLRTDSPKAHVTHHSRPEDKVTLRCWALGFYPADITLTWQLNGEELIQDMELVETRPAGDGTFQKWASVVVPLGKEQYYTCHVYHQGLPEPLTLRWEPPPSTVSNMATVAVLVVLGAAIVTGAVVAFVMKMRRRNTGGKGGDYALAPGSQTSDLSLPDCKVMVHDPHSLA
T1 sequence (P01887 21-119 partner): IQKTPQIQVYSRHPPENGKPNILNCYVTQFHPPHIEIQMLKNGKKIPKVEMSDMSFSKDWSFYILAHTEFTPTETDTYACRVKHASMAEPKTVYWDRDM

IMG = assay: CellTiter-Glo cell viability, IMG; conditions: Mus musculus
Procedure: BzFβ was then examined for its effect on the viability of several murine and human cell lines and primary murine splenocytes. The cytotoxicity of BzFβ was assessed using the CellTiter-Glo […] assay system according to manufacturer's instructions to determine BzFβ's effect on the viability of several murine and human cell lines and primary murine splenocytes.
DC2.4 cell line (Dr. Kenneth Rock, University of Massachusetts), RAW 264.7 cell line (American Type Culture Collection (ATCC), Manassas, VA; TIB 71), and IMG cell line (Millipore™, Merck KGaA, Burlington, MA; cat. no. SC-C134) were each cultured in complete Dulbecco's Modified Eagle Medium (cDMEM) containing […] glucose (Gibco™, Thermo Fisher Scientific Inc., Waltham, MA; cat. no. 10566-016) and supplemented with GlutaMAX, 50 U/mL penicillin and 50 µg/mL streptomycin (Gibco™; cat. no. 15070-063) and 10% heat inactivated fetal bovine serum (FBS) (R&D Systems, Inc., Minneapolis, MN; cat. no. […]
The cytotoxicity of BzFβ was assessed using the CellTiter-Glo cell […] viability assay system […] cat. no. […] CellTiter-Glo was added 1:1 in the media and the level of chemiluminescence was measured using luminescence at wavelengths of 200 nm to 700 nm through a photomultiplier on BioTek's Synergy HTX multimode microplate reader. […]

O=C(O)/C=C/c1ccc2occc2c1 [BzFβ, (2E)-3-(1-benzofuran-5-yl)prop-2-enoic acid]
B3Z activation with SIINFEKL in presence of BFA [1]: unaffected
ability of E.G7-OVA cells to activate B3Z ([2]; 0-100 μg/mL BzFβ): dose-dependently reduced
lowest dose with significant effect ([2]; E.G7-OVA, B3Z assay): 6.25 µg/mL
decay rate of SIINFEKL / stability of H-2Kb/SIINFEKL complex [3]: did not affect the decay rate of SIINFEKL
IC50 (IMG): 316 µM
